Tested on: LS174T secreted proteases
Assay: Secreted protease activity assay with conditioned supernatant
Format: biochemical, human
Settings: fluorescently quenched substrates, MMP inhibitor added

CNC(=O)[C@@H](NC(=O)[C@H](CC(C)C)[C@H](O)C(=O)NO)C(C)(C)C [Marimastat]
in vitro proteolysis of substrates in the presence of Marimastat: abrogated

Source: PMC5344125 (Nano letters, 2016)
